The record followed here is paper PMC6814236, “Monitoring and characterizing soluble and membrane-bound ectonucleotidases CD73 and CD39” (PLoS ONE, 2019).

For experiment [1], the system named is T1, cN-II (Human cytosolic 5'-Nucleotidase).
T1 construct: purchased NovoCIB SAS
As to the kind of experiment: Enzyme activity of purified cytosolic cN-II (AMP-Glo assay). It is filed as biochemical. The conditions noted are these: cN-II 0.6 mU/Rx, 10μM AMP, 37°C for 30 min. As for the experimental part: • 2 Determination of enzyme activity of purified cytosolic cN-II. Activity of purified cN-II (Human cytosolic 5'-Nucleotidase) was determined using 25μl reaction buffer (50mM HEPES, pH 7.0, 100mM KCl, 20mM MgCl2, 5mM DTT, 2.5mM dATP, and 0.1mg/ml BSA) containing enzyme and AMP substrate at 10μM (96-well format). Reaction continued at 37°C for 60 minutes or for a certain time period and terminated by the addition of equal volume (25μl) of AMP-Glo™ Reagent I. Reactions were mixed well and incubated for additional 30 min at 23°C. This was followed by the addition of 50 μl of AMP Detection Solution (10μl of AMP-Glo™ Reagent II per ml of Kinase-Glo® One Solution) and incubated for additional 60 min at 23°C before reading luminescence. • 3 Determination of enzyme activity of purified CD39. Activity of CD39 was determined using reaction buffer that contains 25mM Tris, pH 7.5, 5mM CaCl2, and 0.1mg/ml BSA), with 1μM to 5μM ATP or ADP as substrate, respectively. When ATP is used as a substrate, an equal volume of Kinase-Glo® One Solution was added to CD39 reactions and incubated for 15 min before reading luminescence using a luminometer. […] Reactions were mixed well and incubated for 60min before reading luminescence using luminometer. […]

For experiment [2], the system named is T2, membrane-associated CD39 of Farage cells.
T2 construct: endogenous in cells; host or cells: Farage
Nature of the experiment: Cell-based membrane-associated CD39 activity. More on the design: species or system human. The following applies: 50μM inhibitor, Farage cells 200K per ml, 5 μM ATP, 37°C. Here is the method: For CD39 activity, since it uses both ADP and ATP, we determined its activity using 5 μM final concentration each, as substrate as described above. In a separate plate or microcentrifuge tube, a 25μl aliquots were withdrawn from each well at desired time point and delivered into an assay solid white plate (Corning Costar 3912 or equivalent).
For ADP as substrate, detection of remaining ADP was carried out by preparing AMP Detection Solution (adding 10μl AMP-Glo™ Reagent II to one-ml of Kinase-Glo® One Solution, gently mixing well by inverse tube couple times). To the 25 μl aliquoted from the medium supernatant that was cooled down to room temperature, 25μl of AMP Detection Solution is added to each well, mixed well and incubated for 60min at 23°C, the plates were read using luminometer.
For ATP as substrate, detection of remaining ATP, was carried out using 25μl withdrawn from the medium supernatant that was cooled down to room temperature and 25μl of Kinase-Glo® One Solution were added to each well, mixed well and incubated for 10min at 23°C, then the plate was read using luminometer.
• B Suspension cells. Cells were harvested and washed two times with HBSS by centrifugation at 1,000 rpm at room temperature for 8~10min, discarding the supernatant and cell pellets were diluted to a desired cell number per ml before experiments. […]

Entries after “also recorded” stand apart in the source; their conditions may differ.

Consider `Nc1ncnc2c1ncn2[C@@H]1O[C@H](COP(=O)(O)CP(=O)(O)O)[C@@H](O)[C@H]1O` [AMP-CP, Adenosine 5'-(α, β-methylene) diphosphate], for which the “inhibition of cN-II” value in experiment [1] is listed as “minimal or no inhibition; also recorded: no inhibition”.

For `[Na+].[Na+].[Na+].[Na+].[Na+].[Na+].[O]=[W](=[O])([O-])[O-].[O]=[W](=[O])([O-])[O-].[O]=[W](=[O])([O-])[O-].[O]=[W](=[O])=[O].[O]=[W](=[O])=[O].[O]=[W](=[O])=[O].[O]=[W](=[O])=[O].[O]=[W](=[O])=[O].[O]=[W](=[O])=[O].[O]=[W](=[O])=[O].[O]=[W](=[O])=[O].[O]=[W](=[O])=[O]` [POM1, Sodium metatungstate], the “inhibition of membrane-associated CD39 activity” value in experiment [2] is on record as “inhibited”.
